Results on two compounds are retold here after ChEMBL document CHEMBL1142856, “Design, synthesis, and structure-activity relationship of podocarpic acid amides as liver X receptor agonists for potential treatment of atherosclerosis” (Bioorg Med Chem Lett, 2005).

In assay [1] the target is T1, Oxysterols receptor LXR-beta (Homo sapiens) (UniProt P55055).
T1 sequence (whole entry): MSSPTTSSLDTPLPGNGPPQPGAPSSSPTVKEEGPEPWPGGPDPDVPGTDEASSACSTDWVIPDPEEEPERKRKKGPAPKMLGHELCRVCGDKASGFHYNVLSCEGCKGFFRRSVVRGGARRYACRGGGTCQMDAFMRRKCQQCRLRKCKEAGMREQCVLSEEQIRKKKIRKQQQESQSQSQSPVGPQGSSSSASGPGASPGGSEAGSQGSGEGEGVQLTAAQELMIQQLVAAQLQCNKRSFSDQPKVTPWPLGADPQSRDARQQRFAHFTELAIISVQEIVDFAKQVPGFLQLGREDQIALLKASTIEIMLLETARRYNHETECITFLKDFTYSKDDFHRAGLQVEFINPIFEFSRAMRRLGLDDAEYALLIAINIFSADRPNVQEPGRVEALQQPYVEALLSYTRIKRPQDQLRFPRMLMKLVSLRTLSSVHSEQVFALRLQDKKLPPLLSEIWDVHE
Description: TA max fold induction against LXR beta

The target in assay [2] is T2, Oxysterols receptor LXR-alpha (Homo sapiens) (UniProt Q13133).
T2 sequence (whole entry): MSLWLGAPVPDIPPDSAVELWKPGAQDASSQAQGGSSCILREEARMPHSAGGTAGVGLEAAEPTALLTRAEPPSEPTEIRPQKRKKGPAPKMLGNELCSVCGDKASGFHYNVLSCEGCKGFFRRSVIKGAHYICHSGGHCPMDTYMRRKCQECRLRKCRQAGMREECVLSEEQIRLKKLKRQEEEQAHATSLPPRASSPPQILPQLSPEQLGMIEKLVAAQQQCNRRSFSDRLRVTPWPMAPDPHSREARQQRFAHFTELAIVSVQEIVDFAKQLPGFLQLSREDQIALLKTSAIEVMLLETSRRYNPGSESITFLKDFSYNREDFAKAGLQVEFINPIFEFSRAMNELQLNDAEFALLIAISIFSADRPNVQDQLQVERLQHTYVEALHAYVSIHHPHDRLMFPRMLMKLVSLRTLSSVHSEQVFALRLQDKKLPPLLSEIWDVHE
Description: TA max fold induction against LXR alpha

Assay [3] deals with T3, Oxysterols receptor LXR-alpha (Homo sapiens, UniProt Q13133).
T3 sequence (Q13133 whole entry): T2 sequence (whole entry)
Nature of the assay: Effective concentration in recombinant human LXRalpha ligand binding domain in homogeneous time-resolved fluorescence assay.

In assay [4] the target is T4, Oxysterols receptor LXR-beta (Homo sapiens, UniProt P55055).
T4 sequence (P55055 whole entry): T1 sequence (whole entry)
As to the kind of experiment: Effective concentration in recombinant human LXRbeta ligand binding domain in homogeneous time-resolved fluorescence assay.

In assay [5] the target is T3, Oxysterols receptor LXR-alpha. As to the kind of experiment: Inhibitory concentration in LXRSPA alpha binding assay.
Assay [6] addresses T4, Oxysterols receptor LXR-beta. Nature of the assay: Inhibitory concentration in LXRSPA beta binding assay.

Where only a bound is given, the exact number is not on record here.

Turning to `CC(=O)Oc1ccc2c(c1)[C@@]1(C)CCCC(C)(C(=O)OC(=O)[C@@]3(C)CCC[C@]4(C)c5cc(OC(C)=O)ccc5CC[C@@H]34)[C@@H]1CC2` (stereo partly specified), the values for the Induction in assay [1] and in assay [2] were 54 and 60, respectively.
Broadly, the EC50 is the concentration giving half of the maximal effect. By IC50 is commonly meant the midpoint of a concentration-inhibition curve. Turning to `C=CCOC(=O)[C@@]1(C)CCC[C@]2(C)c3cc(O)ccc3CC[C@@H]12`, the EC50 in assay [3] and in assay [4] was over 50 µM in each case. Further, the IC50 in assay [5] and in assay [6] was over 15 µM throughout.
